Measurements from patent US20260216198A1, “GPR35 MODULATORS” (ThirtyFiveBio Limited, priority 2023, published 2026).

The compounds below were run against T1, GPR35 (Homo sapiens, UniProt Q9HC97) (assay: cellular GPR35 phospho-ERK HTRF assay (inhibition of lodoxamide-induced phospho-ERK signal)). Settings: GPR35-CHO-K1-mt aequorin-Gα16 cell line; agonist lodoxamide at EC80; read-out: Activity Group (IC50, inhibition of GPR35 agonist-induced phospho-ERK signal).
T1 construct: expressed in transfected cells; host or cells: CHO-K1 cells co-expressing mitochondrial aequorin and Gα16
Assay type: cell-based
Source text: (§1) The functional GPR35 assay as described in the accompanying examples measures the ability of GPR35 modulators to inhibit a GPR35 agonist-induced phospho-ERK signal. This is expressed as the concentration of modulator required to reduce the phospho-ERK signal by 50 percent, i.e. the IC50; the signal window being defined as the difference between agonist plus modulator vehicle (no modulator) and agonist vehicle (no agonist) controls.
as §1, with “functional” for “functional GPR35”, “assay” for “assay as”, “described” for “described in the accompanying examples”
This assay is a cellular GPR35 phospho-ERK homogeneous time resolved fluorescence (HTRF) assay using the GPR35-CHO-K1-mt aequorin-Gα16 cell line. Upon activation of GPR35 with the agonist lodoxamide at EC80 concentration, ERK 1/2 is phosphorylated, and after lysis of the cell membrane, phospho-ERK1/2 (Thr202/Tyr204) is detected in a sandwich assay using two different specific antibodies, one labelled with Eu^3+-cryptate (donor) and the second with d2 (acceptor). When the dyes are in proximity, the excitation of the donor with a light source (laser or flash lamp) triggers a Fluorescence Resonance Energy Transfer (FRET) towards the acceptor, resulting in specific acceptor fluorescence (at 665 nm). The specific signal is directly proportional to the amount of phospho-ERK1/2 (Thr202/Tyr204) in the sample. Compounds that interfere with the levels of phospho-ERK1/2 (Thr202/Tyr204) will result in a low HTRF signal.

T1 sequence (Q9HC97 whole entry): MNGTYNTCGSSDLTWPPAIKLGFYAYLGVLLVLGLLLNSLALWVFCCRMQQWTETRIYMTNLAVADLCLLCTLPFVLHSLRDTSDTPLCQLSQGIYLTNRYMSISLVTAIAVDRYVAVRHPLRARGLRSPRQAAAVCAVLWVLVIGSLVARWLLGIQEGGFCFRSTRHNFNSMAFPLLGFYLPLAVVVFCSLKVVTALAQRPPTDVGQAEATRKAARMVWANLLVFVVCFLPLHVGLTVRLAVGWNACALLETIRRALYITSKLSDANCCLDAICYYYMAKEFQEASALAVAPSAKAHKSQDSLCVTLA

IC50 | Structure (SMILES)
< 1000 nM | O=C(Nc1ccc(OCCc2ccccc2)cc1)c1cccc(-c2cnc(NC3CC3)c(C(=O)O)c2)c1 [Example 38, 2-(Cyclopropylamino)-5-(3-((4-phenethoxyphenyl)carbamoyl)phenyl)nicotinic acid]
< 1000 nM | Cc1ncc(-c2cccc(C(=O)Nc3ccc(COCc4ccccc4)cc3)c2)cc1C(=O)O [Example 39, 5-(3-((4-((Benzyloxy)methyl)phenyl)carbamoyl)phenyl)-2-methylnicotinic acid]
1000 to 10000 nM | Cc1ncc(-c2cccc(C(=O)Nc3cccc(COCc4ccccc4)c3)c2)cc1C(=O)O [Example 40, 5-(3-((3-((Benzyloxy)methyl)phenyl)carbamoyl)phenyl)-2-methylnicotinic acid]
1000 to 10000 nM | Cc1ncc(-c2cccc(C(=O)Nc3ccc(OCC4CC4)cc3)c2)cc1C(=O)O [Example 41, 5-(3-((4-(Cyclopropylmethoxy)phenyl)carbamoyl)phenyl)-2-methylnicotinic acid]
1000 to 10000 nM | Cc1ncc(-c2cccc(C(=O)Nc3ccc(COC4CC4)cc3)c2)cc1C(=O)O [Example 42, 5-(3-((4-(Cyclopropoxymethyl)phenyl)carbamoyl)phenyl)-2-methylnicotinic acid]
1000 to 10000 nM | Cc1ncc(-c2cccc(C(=O)Nc3ccc(CS(=O)(=O)Cc4ccccc4)cc3)c2)cc1C(=O)O [Example 43, 5-(3-((4-((Benzylsulfonyl)methyl)phenyl)carbamoyl)phenyl)-2-methylnicotinic acid]
1000 to 10000 nM | Cc1ncc(-c2cccc(C(=O)Nc3ccc(COCC4CC4)cc3)c2)cc1C(=O)O [Example 44, 5-(3-((4-((Cyclopropylmethoxy)methyl)phenyl)carbamoyl)phenyl)-2-methylnicotinic acid]
1000 to 10000 nM | O=C(Nc1ccc(COCC2CC2)cc1)c1cccc(-c2cnc(Cl)c(C(=O)O)c2)c1 [Example 45, 2-Chloro-5-(3-((4-((cyclopropylmethoxy)methyl)phenyl)carbamoyl)phenyl)nicotinic acid]
1000 to 10000 nM | O=C(Nc1ccc(OCCc2ccccc2)nc1)c1cccc(-c2cccc(C(=O)O)n2)c1 [Example 46, 6-(3-((6-Phenethoxypyridin-3-yl)carbamoyl)phenyl)picolinic acid]
1000 to 10000 nM | Cc1ncc(-c2cccc(C(=O)Nc3ccc(COCc4ccccc4)cc3F)c2)cc1C(=O)O [Example 47, 5-(3-((4-((Benzyloxy)methyl)-2-fluorophenyl)carbamoyl)phenyl)-2-methylnicotinic acid]
1000 to 10000 nM | Cc1ncc(-c2ncc(C(=O)Nc3ccc(COCc4ccccc4)cc3)s2)cc1C(=O)O [Example 49, 5-(5-((4-((Benzyloxy)methyl)phenyl)carbamoyl)thiazol-2-yl)-2-methylnicotinic acid]
1000 to 10000 nM | Cc1ncc(-c2nc(C(=O)Nc3ccc(COCc4ccccc4)cc3)cs2)cc1C(=O)O [Example 50, 5-(4-((4-((Benzyloxy)methyl)phenyl)carbamoyl)thiazol-2-yl)-2-methylnicotinic acid]
1000 to 10000 nM | Cc1ncc(-c2cncc(C(=O)Nc3ccc(OCCc4ccccc4)cc3)c2)cc1C(=O)O [Example 51, 6-Methyl-5′-((4-phenethoxyphenyl)carbamoyl)-[3,3′-bipyridine]-5-carboxylic acid]
< 1000 nM | Cc1ncc(-c2ccc(F)c(C(=O)Nc3ccc(COCc4ccccc4)cc3)c2)cc1C(=O)O [Example 52, 5-(3-((4-((Benzyloxy)methyl)phenyl)carbamoyl)-4-fluorophenyl)-2-methylnicotinic acid]
< 1000 nM | Cc1ncc(-c2cc(C(=O)Nc3ccc(OCCc4ccccc4)cc3)ccn2)cc1C(=O)O [Example 53, 6′-Methyl-4-((4-phenethoxyphenyl)carbamoyl)-[2,3′-bipyridine]-5′-carboxylic acid]

Structure (SMILES) | IC50
O=C(Nc1cccc(-c2cccc(C(=O)O)n2)c1)c1ccc(OCCCCc2ccccc2)cc1 [Example 48, 6-(3-(4-(4-Phenylbutoxy)benzamido)phenyl)picolinic acid] | < 1000 nM
